Measured values as given in ChEMBL document CHEMBL1201862, “PubChem BioAssay data set” (2004).
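Cells were grown in 96-well plates and exposed to each compound for 48 hours at five concentrations; endpoints were interpolated linearly between bracketing concentrations, or set to the highest concentration if not reached. GI50 = concentration required for 50% inhibition of growth.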 Activity calls are given as the source filed them. No stated cut-off is given here; in the data, active = GI50 up to about 1.1 µM and inactive = higher.

Columns and labels:
Test in all cases: inhibition of tumour cell growth, NCI panel, 48 h
[1] = system: NCI-H23
[2] = system: MDA-MB-435
[3] = system: KM12
[4] = system: NCI-H226
[5] = system: MCF7
[6] = system: A549
[7] = system: UACC-62
[8] = system: UO-31
[9] = system: HCC 2998
[10] = system: A498
[11] = system: SK-MEL-28
[12] = system: SK-OV-3
[13] = system: M14
[14] = system: HOP-92
[15] = system: TK-10
[16] = system: MDA-N
[17] = system: SR
[18] = system: PC-3
[19] = system: HT-29

| Compound | GI50 [1] | GI50 [2] | GI50 [3] | GI50 [4] | GI50 [5] | GI50 [6] | GI50 [7] | GI50 [8] | GI50 [9] | GI50 [10] | GI50 [11] | GI50 [12] | GI50 [13] | GI50 [14] | GI50 [15] | GI50 [16] | GI50 [17] | GI50 [18] | GI50 [19] |
| --- | --- | --- | --- | --- | --- | --- | --- | --- | --- | --- | --- | --- | --- | --- | --- | --- | --- | --- | --- |
| CC(C)C[C@H](NC(=O)[C@H](Cc1ccccc1)NC(=O)CCc1ccccc1)B(O)O | < 0.01 µM (active) | < 0.01 µM (active) | < 0.01 µM (active) | < 0.01 µM (active) | < 0.01 µM (active) | < 0.01 µM (active) | < 0.01 µM (active) | < 0.01 µM (active) | < 0.01 µM (active) | < 0.01 µM (active) | < 0.01 µM (active) | < 0.01 µM (active) | < 0.01 µM (active) | < 0.01 µM (active) | < 0.01 µM (active) | < 0.01 µM (active) | < 0.01 µM (active) | < 0.01 µM (active) | < 0.01 µM (active) |
| COC(=O)/C=C(/C(=O)OC)c1cc2ccc3c([nH]c4ccccc43)c(C)c-2c1 | 3.96 µM (inactive) | 3.94 µM (inactive) | 3.73 µM (inactive) | 5.98 µM (inactive) | 2.79 µM (inactive) | 4.73 µM (inactive) | 4.66 µM (inactive) | 3.79 µM (inactive) | 3.92 µM (inactive) | 8.04 µM (inactive) | 5.55 µM (inactive) | 7.69 µM (inactive) | 4.37 µM (inactive) | 1.21 µM (inactive) | 15.2 µM (inactive) | 2.9 µM (inactive) | 2.74 µM (inactive) | 2.68 µM (inactive) | 2.78 µM (inactive) |
| C[C@]12CC[C@@H]3c4ccc(OC(=O)c5ccccc5)cc4CC[C@H]3[C@@H]1CC[C@@H]2Oc1c2ccccc2nc2ccccc12 | 12.4 µM (inactive) | 5.46 µM (inactive) | 14 µM (inactive) | 14.9 µM (inactive) | 17 µM (inactive) | 6.62 µM (inactive) | 17.7 µM (inactive) | 13.2 µM (inactive) | 7.05 µM (inactive) | 17.4 µM (inactive) | 12 µM (inactive) | 20.7 µM (inactive) | 7.43 µM (inactive) | 12.9 µM (inactive) | 17.2 µM (inactive) | 3.53 µM (inactive) | 10 µM (inactive) | 8.93 µM (inactive) | 5.83 µM (inactive) |
| CC1=NN(c2nc(N)nc(C(C#N)C(=O)c3cc4c(cc3Cl)Sc3nccn3S4(=O)=O)n2)C(C)(C)C1 (stereo unspecified) | 16.1 µM (inactive) | 22.8 µM (inactive) | 20 µM (inactive) | 16.5 µM (inactive) | 14.3 µM (inactive) | 61.4 µM (inactive) | 18.8 µM (inactive) | 30.1 µM (inactive) | 8.41 µM (inactive) | 52.1 µM (inactive) | 20 µM (inactive) | 18.5 µM (inactive) | 34.5 µM (inactive) | 26.7 µM (inactive) | 17.9 µM (inactive) | 21.9 µM (inactive) | 4.4 µM (inactive) | 29.2 µM (inactive) | 34.3 µM (inactive) |
| CC(=O)c1sc2[n+](c1C)C(=O)/C(=C\c1ccccc1Cl)S2 | 19.3 µM (inactive) | 15.3 µM (inactive) | 17.3 µM (inactive) | 13.3 µM (inactive) | 16.1 µM (inactive) | 19.6 µM (inactive) | 13.1 µM (inactive) | 19.3 µM (inactive) | 20 µM (inactive) | 29.7 µM (inactive) | 16.7 µM (inactive) | 25.1 µM (inactive) | 18.6 µM (inactive) | 56.2 µM (inactive) | 26.9 µM (inactive) | 19.4 µM (inactive) | 18.3 µM (inactive) | 22.5 µM (inactive) | 20.6 µM (inactive) |
| Cc1cc(S(=O)(=O)Nc2nc3ccccc3nc2-c2ccc(Cl)cc2)c(S)cc1Cl | 18.5 µM (inactive) | 17.3 µM (inactive) | 17.2 µM (inactive) | 23.1 µM (inactive) | 17 µM (inactive) | 16.4 µM (inactive) | 12.2 µM (inactive) | 15.9 µM (inactive) | 15.7 µM (inactive) | 16.3 µM (inactive) | 16.8 µM (inactive) | 17.3 µM (inactive) | 19.3 µM (inactive) | 20.4 µM (inactive) | 28.6 µM (inactive) | 18 µM (inactive) | 17.3 µM (inactive) | 17.1 µM (inactive) | 17.5 µM (inactive) |
| COC1=C2CC(C)CC(OC)C(OC(=O)CCCN)C(C)/C=C(\C)C(OC(N)=O)C(OC)/C=C\C=C(/C)C(=O)NC(=CC1=O)C2=O (stereo unspecified) | 3.65 µM (inactive) | 2.97 µM (inactive) | 10.3 µM (inactive) | 16.3 µM (inactive) | 0.865 µM (active) | 25.5 µM (inactive) | 6 µM (inactive) | 10.5 µM (inactive) | 10.1 µM (inactive) | 16.4 µM (inactive) | 8.61 µM (inactive) | 15.5 µM (inactive) | 4.56 µM (inactive) | 4.23 µM (inactive) | 7.16 µM (inactive) | 4.33 µM (inactive) | 3.02 µM (inactive) | 9.2 µM (inactive) | 2.43 µM (inactive) |
| Cc1cn(CCCCCCOC(=O)NC(CCCNC(=N)N)C(=O)O)c(=O)[nH]c1=O (stereo unspecified) | > 100 µM (inactive) | > 100 µM (inactive) | > 100 µM (inactive) | > 100 µM (inactive) | > 100 µM (inactive) | > 100 µM (inactive) | > 100 µM (inactive) | > 100 µM (inactive) | > 100 µM (inactive) | > 100 µM (inactive) | > 100 µM (inactive) | > 100 µM (inactive) | > 100 µM (inactive) | > 100 µM (inactive) | > 100 µM (inactive) | > 100 µM (inactive) | > 100 µM (inactive) | > 100 µM (inactive) | > 100 µM (inactive) |
| COc1cc2oc(=O)cc(C)c2cc1[N+](=O)[O-] | 21.3 µM (inactive) | 20.1 µM (inactive) | 25.7 µM (inactive) | 8.77 µM (inactive) | 25.5 µM (inactive) | > 90.4 µM (inactive) | 16.1 µM (inactive) | 34.4 µM (inactive) | 14.6 µM (inactive) | 28.4 µM (inactive) | 22.6 µM (inactive) | 84.1 µM (inactive) | 16.7 µM (inactive) | 17.1 µM (inactive) | 35.7 µM (inactive) | 14.7 µM (inactive) | 13 µM (inactive) | 27.9 µM (inactive) | 23.1 µM (inactive) |
| CC1=C/C(=N\O)C(C(O)(C(F)(F)F)C(F)(F)F)C(C)(C)C1 (stereo unspecified) | > 10 µM (inactive) | > 10 µM (inactive) | > 10 µM (inactive) | > 10 µM (inactive) | > 10 µM (inactive) | > 10 µM (inactive) | > 10 µM (inactive) | > 10 µM (inactive) | > 10 µM (inactive) | > 10 µM (inactive) | > 10 µM (inactive) | > 10 µM (inactive) | > 10 µM (inactive) | > 10 µM (inactive) | > 10 µM (inactive) | > 10 µM (inactive) | > 10 µM (inactive) | > 10 µM (inactive) | > 10 µM (inactive) |
| CC1(C)C=C(/C=C2/N(S(=O)(=O)C(F)(F)F)C(/C=C3/N(S(=O)(=O)C(F)(F)F)C(C)(C#N)CC3(C)C)=CC2(C)C)N=C1/C=C1/CC(C)(C)C(=O)N1 (stereo unspecified) | 18.8 µM (inactive) | 15 µM (inactive) | 5.77 µM (inactive) | 22.7 µM (inactive) | 9.29 µM (inactive) | 32.8 µM (inactive) | 14.4 µM (inactive) | 35.8 µM (inactive) | 35.2 µM (inactive) | 55.6 µM (inactive) | 51.2 µM (inactive) | 45.7 µM (inactive) | 29.3 µM (inactive) | 24.7 µM (inactive) | 71.9 µM (inactive) | 21.4 µM (inactive) | 2.8 µM (inactive) | 5.71 µM (inactive) | 16.8 µM (inactive) |
| NNC(=O)CSc1nc2ccc(I)cc2c(=O)n1Cc1ccccc1 | 31.5 µM (inactive) | 35.2 µM (inactive) | 23.5 µM (inactive) | 18.8 µM (inactive) | 22.2 µM (inactive) | 24.3 µM (inactive) | 18.6 µM (inactive) | 15.9 µM (inactive) | 16.8 µM (inactive) | 14.2 µM (inactive) | 28.4 µM (inactive) | 15.7 µM (inactive) | 18.2 µM (inactive) | 30.5 µM (inactive) | 16.9 µM (inactive) | 31.8 µM (inactive) | 26.5 µM (inactive) | 22.8 µM (inactive) | 21.7 µM (inactive) |
| N#Cc1c(Nc2ccccc2)[n+]([O-])c2ccc(Cl)cc2[n+]1[O-] | 5.08 µM (inactive) | 8.99 µM (inactive) | 4.36 µM (inactive) | 4.67 µM (inactive) | 3.64 µM (inactive) | 9.86 µM (inactive) | 3.71 µM (inactive) | 2.89 µM (inactive) | 4.06 µM (inactive) | 7.69 µM (inactive) | 12.9 µM (inactive) | 21.2 µM (inactive) | 7.57 µM (inactive) | 1.73 µM (inactive) | 4.06 µM (inactive) | 11 µM (inactive) | 3.16 µM (inactive) | 3.36 µM (inactive) | 3.05 µM (inactive) |
| Cc1[nH]c2ccccc2c1-c1cc(-c2cc(-c3c(C)[nH]c4ccccc34)on2)no1 | > 100 µM (inactive) | 25.8 µM (inactive) | 42.6 µM (inactive) | 98.4 µM (inactive) | 55 µM (inactive) | > 100 µM (inactive) | 51.4 µM (inactive) | 46.6 µM (inactive) | 61 µM (inactive) | > 100 µM (inactive) | > 100 µM (inactive) | 77.6 µM (inactive) | 37.7 µM (inactive) | 83.8 µM (inactive) | > 100 µM (inactive) | 21 µM (inactive) | 38.8 µM (inactive) | 63 µM (inactive) | 42.6 µM (inactive) |
